Data published in patent US6630466B2, “Medicament compositions containing anticholinergically-effective compounds and salmeterol” (priority 1999, dated 2003).
Values joined by “and” are separate entries in the source; they are usually repeats but may differ in a detail not shown here. Identical values can stand only once. Counter-ions that a name gives are not always drawn.

Key:
[1] = system: bronchial resistance of narcotized dogs; experiment: Bronchospasmolytic effect: inhibition of ACh-induced increase of pulmonary resistance in narcotized dogs after inhalative application via […]; assay type: in vivo, dog; conditions: single substances 3 and 10 μg, combination 3 μg + 3 μg
Description: (§1) 18 mongrel dogs with a body weight of 27 to 32 kg. Kept in individual or communal cages, pelleted standard food, last fed approximately 15 hours before the start of the tests, drinking water freely available.
(§2) After pre-medication with 2 mg/kg morphine hydrochloride i.m., 30 mg/kg pentobarbital-sodium (NEMBUTAL®) is slowly injected intravenously. The animals are relaxed with 1.0 mg/kg i.v. suxamethonium.
After intubation via a servo ventilator 900C (Siemens), the animals are ventilated with ambient air and oxygen (4:1), frequency 15/min., breath volume 6 to 8 L/min. For registration of the breathing mechanics, breath flow is determined by means of a pressurizing pipe (flesh no. 1), installed directly before the orotracheal tube, of a differential pressure recorder and amplifier DCB-4C. A catheter is placed in the trachea and a second (balloon) catheter is placed in the lung section of the esophagus. Both are connected with a differential pressure recorder and amplifier for determination of the transpulmonary pressure. A breath mechanics computer (IFD-Mühlheim) determines the pulmonary resistance (R) from the registered pressure values. From this, a computer program VAS-1 LA (IFD-Mühlheim) calculates: [formula] […]

[2] = system: Heart Frequency of Narcotized Dogs; experiment: Heart frequency of narcotized dogs after inhalative application via RESPIMAT (ECG, cardiotachometer)
Description: as §1, §2
Registration of heart frequency is via ECG (extremity derivative II) and cardiotachometer.
After an equilibration period of 30 minutes, short-term bronchospasms are generated by i.v. injection of 10 μg/kg acetylcholine chloride—this is repeated 2-3× within a 10-minute period. […] Application of the combinations takes place with the individual combinations with an interval of approximately 1 minute. With the BINEB system, the triggering mechanism takes place at the end of the expiration phase and the atomized solution is pressed into the tracheo-bronchial tree in the following inspiration phase of the breath pump.

[3] = 3 μg inhalative, 1 min after application, individual dog
[4] = 3 μg inhalative, 5 min after application, individual dog
[5] = 3 μg inhalative, 5 min after application, mean value, n = 6
[6] = 3 μg inhalative, 10 min after application, individual dog
[7] = 3 μg inhalative, 20 min after application, individual dog
[8] = 3 μg inhalative, 30 min after application, individual dog
[9] = 3 μg inhalative, 60 min after application, individual dog
[10] = 3 μg inhalative, 120 min after application, individual dog
[11] = 3 μg inhalative, 180 min after application, individual dog
[12] = 3 μg inhalative, 180 min after application, mean value, n = 6
[13] = 10 μg inhalative, 1 min after application, individual dog
[14] = 10 μg inhalative, 5 min after application, individual dog
[15] = 10 μg inhalative, 5 min after application, mean value, n = 6
[16] = 10 μg inhalative, 10 min after application, individual dog
[17] = 10 μg inhalative, 10 min after application, mean value, n = 6
[18] = 10 μg inhalative, 20 min after application, individual dog
[19] = 10 μg inhalative, 20 min after application, mean value, n = 6
[20] = 10 μg inhalative, 30 min after application, individual dog
[21] = 10 μg inhalative, 30 min after application, mean value, n = 6
[22] = 10 μg inhalative, 60 min after application, individual dog
[23] = 10 μg inhalative, 60 min after application, mean value, n = 6
[24] = 10 μg inhalative, 120 min after application, individual dog
[25] = 10 μg inhalative, 180 min after application, individual dog
[26] = 10 μg inhalative, 180 min after application, mean value, n = 6

Compound: COc1ccc(CC(C)NCC(O)c2ccc(O)c(NC=O)c2)cc1 (centres unmarked) [formoterol fumarate, formoterol]
- onset of maximum bronchospasmolytic effect [1]: rapidly occurs
- effective duration of bronchospasmolytic effect ([1]; test duration 180 minutes): comparatively short
- Heart frequency (beats/min.) [2, 3]: 67.00 beats/min. and 91.00 beats/min. and 102.00 beats/min.
- Heart frequency, % alteration [2, 3]: 7.94% and −7.52% and 11.67% and 13.04% and 21.13% and 15.68%
- Heart frequency (beats/min.) ([2]; 3 μg inhalative, 1 min after application, mean value, n = 6): 103.17 beats/min.
- Heart frequency (beats/min.) [2, 4]: 140.00 beats/min. and 64.00 beats/min. and 95.00 beats/min.
- Heart frequency, % alteration [2, 4]: 11.11% and 5.26% and 6.67% and 18.01% and 28.64% and 25.41%
- Heart frequency (beats/min.) [2, 5]: 109.50 beats/min.
- Heart frequency, % alteration [2, 5]: 15.85%
- Heart frequency (beats/min.) [2, 6]: 100.00 beats/min. and 110.00 beats/min.
- Heart frequency, % alteration [2, 6]: 36.51% and 21.80% and 66.67% and 36.65% and 29.58%
- Heart frequency, % alteration ([2]; 3 μg inhalative, 10 min after application, mean value, n = 6): 37.72%
- Heart frequency (beats/min.) [2, 7]: 165.00 beats/min. and 95.00 beats/min. and 100.00 beats/min. and 141.00 beats/min.
- Heart frequency, % alteration [2, 7]: 41.80% and 24.06% and 54.33% and 24.44% and 32.39% and 36.22%
- Heart frequency, % alteration ([2]; 3 μg inhalative, 20 min after application, mean value, n = 6): 36.17%
- Heart frequency (beats/min.) [2, 8]: 159.00 beats/min. and 89.00 beats/min. and 95.00 beats/min.
- Heart frequency, % alteration [2, 8]: 46.03% and 48.33% and 18.01% and 38.38%
- Heart frequency, % alteration ([2]; 3 μg inhalative, 30 min after application, mean value, n = 6): 34.41%
- Heart frequency (beats/min.) [2, 9]: 86.00 beats/min. and 94.00 beats/min. and 140.00 beats/min.
- Heart frequency, % alteration [2, 9]: 41.80% and 15.04% and 43.33% and 31.46% and 38.38%
- Heart frequency, % alteration ([2]; 3 μg inhalative, 60 min after application, mean value, n = 6): 31.13%
- Heart frequency (beats/min.) [2, 10]: 88.00 beats/min. and 94.00 beats/min. and 130.00 beats/min. and 120.00 beats/min.
- Heart frequency, % alteration [2, 10]: 21.69% and 46.67% and 29.73%
- Heart frequency (beats/min.) [2, 11]: 140.00 beats/min. and 86.00 beats/min. and 96.00 beats/min. and 130.00 beats/min. and 120.00 beats/min.
- Heart frequency, % alteration [2, 11]: 14.29% and 5.26% and 43.33% and 19.25% and 29.73%
- Heart frequency (beats/min.) [2, 12]: 113.33 beats/min.
- Heart frequency, % alteration [2, 12]: 22.32%
- Heart frequency (beats/min.) [2, 13]: 96.00 beats/min.
- Heart frequency, % alteration [2, 13]: 22.75% and 9.02% and 81.67% and 19.25% and −1.41% and 31.89%
- Heart frequency, % alteration ([2]; 10 μg inhalative, 1 min after application, mean value, n = 6): 27.20%
- Heart frequency (beats/min.) [2, 14]: 136.00 beats/min. and 120.00 beats/min. (2×)
- Heart frequency, % alteration [2, 14]: 61.90% and 2.26% and 143.33% and 49.07% and 12.68% and 31.89%
- Heart frequency (beats/min.) [2, 15]: 132.83 beats/min.
- Heart frequency, % alteration [2, 15]: 50.19%
- Heart frequency (beats/min.) [2, 16]: 191.00 beats/min. and 152.00 beats/min. and 144.00 beats/min. and 160.00 beats/min. and 130.00 beats/min. and 155.00 beats/min.
- Heart frequency, % alteration [2, 16]: 64.02% and 43.61% and 153.33% and 78.88% and 50.23% and 40.54%
- Heart frequency (beats/min.) [2, 17]: 155.33 beats/min.
- Heart frequency, % alteration [2, 17]: 71.77%
- Heart frequency (beats/min.) [2, 18]: 204.00 beats/min. and 156.00 beats/min. and 135.00 beats/min. and 157.00 beats/min.
- Heart frequency, % alteration [2, 18]: 66.14% and 53.38% and 155.00% and 93.79% and 48.36% and 45.95%
- Heart frequency (beats/min.) [2, 19]: 160.50 beats/min.
- Heart frequency, % alteration [2, 19]: 77.10%
- Heart frequency (beats/min.) [2, 20]: 207.00 beats/min. and 150.00 beats/min. (2×) and 156.00 beats/min. and 140.00 beats/min. and 159.00 beats/min.
- Heart frequency, % alteration [2, 20]: 68.25% and 55.64% and 150.00% and 93.79% and 40.85% and 51.35%
- Heart frequency (beats/min.) [2, 21]: 160.33 beats/min.
- Heart frequency, % alteration [2, 21]: 76.65%
- Heart frequency (beats/min.) [2, 22]: 210.00 beats/min. and 149.00 beats/min. and 140.00 beats/min. (2×) and 150.00 beats/min. and 163.00 beats/min.
- Heart frequency, % alteration [2, 22]: 72.49% and 57.89% and 148.33% and 73.91% and 40.85% and 51.35%
- Heart frequency (beats/min.) [2, 23]: 158.67 beats/min.
- Heart frequency, % alteration [2, 23]: 74.14%
- Heart frequency (beats/min.) [2, 24]: 209.00 beats/min. and 140.00 beats/min. and 135.00 beats/min. and 176.00 beats/min.
- Heart frequency, % alteration [2, 24]: 86.24% and 57.14% and 143.33% and 73.91% and 45.95%
- Heart frequency, % alteration ([2]; 10 μg inhalative, 120 min after application, mean value, n = 6): 73.79%
- Heart frequency (beats/min.) [2, 25]: 205.00 beats/min. and 141.00 beats/min. and 130.00 beats/min. and 135.00 beats/min. and 152.00 beats/min.
- Heart frequency, % alteration [2, 25]: 60.85% and 54.14% and 135.00% and 61.49% and 45.95%
- Heart frequency (beats/min.) [2, 26]: 151.33 beats/min.
- Heart frequency, % alteration [2, 26]: 65.59%
- maximum increase of heart frequency ([2]; high dosage (10 μg)): over 90%
- increase of heart frequency after the end of the test ([2]; high dosage (10 μg), end of test (180 minutes)): over 80%
